Measured values from ChEMBL document CHEMBL1134043, “Allosteric inhibition of fructose-1,6-bisphosphatase by anilinoquinazolines” (Bioorg Med Chem Lett, 2001).

How the values were obtained:
[1] = molecular target: T1, Fructose-1,6-bisphosphatase 1 (Rattus norvegicus, UniProt P19112); experiment: Compound was evaluated for its concentration required to inhibit the rat liver F16BPase
T1 sequence (P19112 whole entry): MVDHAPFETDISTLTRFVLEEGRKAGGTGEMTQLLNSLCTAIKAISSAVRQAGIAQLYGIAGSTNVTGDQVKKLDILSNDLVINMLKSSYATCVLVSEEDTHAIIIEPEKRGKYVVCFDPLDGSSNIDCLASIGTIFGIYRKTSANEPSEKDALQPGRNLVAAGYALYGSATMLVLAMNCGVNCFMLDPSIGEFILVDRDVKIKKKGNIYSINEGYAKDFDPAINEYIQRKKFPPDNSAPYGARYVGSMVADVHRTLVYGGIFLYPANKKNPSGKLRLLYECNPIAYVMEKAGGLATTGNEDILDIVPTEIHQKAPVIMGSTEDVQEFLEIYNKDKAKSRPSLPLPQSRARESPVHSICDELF

Oryctolagus cuniculus = species: Oryctolagus cuniculus; experiment: Compound was evaluated for its concentration required to inhibit the rabbit liver F16BPase; type: functional
[2] = molecular target: T2, Fructose-1,6-bisphosphatase 1 (Sus scrofa, UniProt P00636); experiment: Compound was evaluated for its concentration required to inhibit the porcine kidney F16BPase
T2 sequence (P00636 whole entry): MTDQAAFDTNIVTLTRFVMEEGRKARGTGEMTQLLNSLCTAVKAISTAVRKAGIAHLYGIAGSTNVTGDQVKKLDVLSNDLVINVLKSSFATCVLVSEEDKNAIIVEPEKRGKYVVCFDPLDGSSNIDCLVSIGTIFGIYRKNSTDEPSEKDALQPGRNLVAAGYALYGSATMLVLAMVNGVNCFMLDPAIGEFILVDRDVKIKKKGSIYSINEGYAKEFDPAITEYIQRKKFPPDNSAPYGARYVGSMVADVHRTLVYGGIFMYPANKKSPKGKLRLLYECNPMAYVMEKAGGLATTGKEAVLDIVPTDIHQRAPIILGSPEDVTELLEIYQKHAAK

[3] = molecular target: T3, Fructose-1,6-bisphosphatase 1 (Homo sapiens, UniProt P09467); experiment: Concentration required to inhibit the human liver recombinant fructose-1,6-bisphosphatase.
T3 sequence (P09467 whole entry): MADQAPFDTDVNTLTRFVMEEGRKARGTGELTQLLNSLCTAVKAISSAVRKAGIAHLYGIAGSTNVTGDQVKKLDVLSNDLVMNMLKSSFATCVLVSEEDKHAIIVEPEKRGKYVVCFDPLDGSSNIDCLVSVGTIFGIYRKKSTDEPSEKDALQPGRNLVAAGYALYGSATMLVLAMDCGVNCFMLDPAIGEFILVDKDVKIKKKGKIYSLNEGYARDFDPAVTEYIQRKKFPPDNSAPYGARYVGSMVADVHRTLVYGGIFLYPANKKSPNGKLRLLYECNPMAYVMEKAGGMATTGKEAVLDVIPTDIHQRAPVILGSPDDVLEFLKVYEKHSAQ

Structure (SMILES)	IC50 [1]	IC50 (Oryctolagus cuniculus)	IC50 [2]	IC50 [3]
O=C(O)c1ccc2c(Nc3cccc(Br)c3)ncnc2c1				> 10 µM
CC(C)Oc1ccc2ncnc(Nc3cccc(Br)c3)c2c1				> 10 µM
CCOc1cc2ncnc(Nc3cccc(Br)c3)c2cc1OCC	> 10 µM	> 10 µM	> 10 µM	1.7 µM
CCOc1cc2nc(-c3ccccc3)nc(Nc3cccc(Br)c3)c2cc1OCC				> 10 µM
CCOc1cc2nc(Cc3ccccc3)nc(Nc3cccc(Br)c3)c2cc1OCC				> 10 µM
C#Cc1cccc(Nc2ncnc3cc(OCC)c(OCC)cc23)c1				2.4 µM
CCCCOc1ccc2ncnc(Nc3cccc(Br)c3)c2c1				> 10 µM
CCOc1cc2nc(CS(C)(=O)=O)nc(Nc3cccc(Br)c3)c2cc1OCC				> 10 µM
CCOc1cc2ncnc(Nc3ccc(Cl)c(Cl)c3)c2cc1OCC				> 10 µM
CCOc1cc2ncnc(Nc3ccc(F)c(Cl)c3)c2cc1OCC	> 10 µM	> 10 µM	3.1 µM	0.53 µM
Brc1cccc(Nc2ncnc3cc4ccccc4cc23)c1				7.5 µM
COCCOc1cc2ncnc(Nc3cccc(Br)c3)c2cc1OCCOC				> 10 µM
CCOc1cc2ncnc(Nc3cccc(Cl)c3)c2cc1OCC	> 10 µM	> 10 µM	3.9 µM	1.6 µM
C#Cc1cc(Nc2ncnc3cc(OC)c(OC)cc23)ccc1F	> 10 µM	> 10 µM	0.77 µM	0.25 µM
COCCOc1ccc2ncnc(Nc3cccc(Br)c3)c2c1				2.9 µM
Brc1cccc(Nc2ncnc3cc4nc[nH]c4cc23)c1				4 µM
O=[N+]([O-])c1cc2c(Nc3cccc(Br)c3)ncnc2cc1Cl				> 10 µM
CCOc1cc2ncnc(Nc3cccc(C#N)c3)c2cc1OCC				> 10 µM
COc1cc2ncnc(Nc3cccc(Cl)c3)c2cc1OC [TYRPHOSTIN AG-1478]	> 10 µM	> 10 µM	> 10 µM	1.3 µM

Next, values leading:

IC50 [1]	IC50 (Oryctolagus cuniculus)	IC50 [2]	IC50 [3]	Structure (SMILES)
> 10 µM	> 10 µM	> 10 µM		COc1cc2ncnc(Nc3cccc(Br)c3)c2cc1OC
			9.2 µM	CCOc1cc2ncnc(Nc3cccc(F)c3)c2cc1OCC
			4.5 µM	COc1cc2nc(C)nc(Nc3cccc(Br)c3)c2cc1OC
> 10 µM	> 10 µM	0.34 µM	0.29 µM	COc1cc2ncnc(Nc3ccc(F)c(Cl)c3)c2cc1OC
			> 10 µM	CCOc1cc2ncnc(Nc3ccc(C)c(Cl)c3)c2cc1OCC
> 10 µM	> 10 µM	1.6 µM	0.9 µM	C#Cc1cccc(Nc2ncnc3cc(OC)c(OC)cc23)c1
			> 10 µM	CCOc1cc2nc(CN(CC)CC)nc(Nc3cccc(Br)c3)c2cc1OCC
			> 10 µM	CCOc1cc2nc(CN3CCOCC3)nc(Nc3cccc(Br)c3)c2cc1OCC
			> 10 µM	CCN(CC)c1nc(Nc2cccc(Br)c2)c2cc(OC)c(OC)cc2n1
			11.9 µM	Nc1cc2c(Nc3cccc(Br)c3)ncnc2cc1Cl
			> 10 µM	CCOc1cc2nc(CC(C)C)nc(Nc3cccc(Br)c3)c2cc1OCC
			5.5 µM	COCCOc1cc2c(Nc3cccc(Br)c3)ncnc2cc1OC
			> 10 µM	COc1cc2ncnc(Nc3cccc(Br)c3)c2cc1[N+](=O)[O-]
			> 10 µM	CCOc1cc2ncnc(Nc3ccccc3)c2cc1OCC
			2.1 µM	CCOc1cc2ncnc(Nc3cccc(I)c3)c2cc1OCC
			3.6 µM	CCOc1cc2ncnc(Nc3cccc(Br)c3)c2cc1[N+](=O)[O-]
			> 10 µM	CCOc1cc2nc(CCl)nc(Nc3cccc(Br)c3)c2cc1OCC
